Measurements from PubChem BioAssay (NCI).
Several values for one entry are separate records, joined by “and”; a condition that tells them apart may be missing. Equal values may be shown once.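 In this assay, cells in 96-well plates receive the compound at five concentrations for 48 hours. Endpoints are linearly interpolated between the surrounding concentrations. GI50 is the concentration that inhibits growth by half. TGI is the concentration that stops growth completely.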

Experiments:
Experiment in all cases: NCI anticancer screen, dose series, 48 h
A549 NSCLC = system: A549 NSCLC
CAKI-1 renal = system: CAKI-1 renal
DU-145 prostate = system: DU-145 prostate
HOP-92 NSCLC = system: HOP-92 NSCLC
M14 melanoma = system: M14 melanoma
MOLT-4 leukemia = system: MOLT-4 leukemia
OVCAR-5 ovarian = system: OVCAR-5 ovarian
OVCAR-8 ovarian = system: OVCAR-8 ovarian
SNB-75 CNS = system: SNB-75 CNS
UACC-62 melanoma = system: UACC-62 melanoma

Row | Compound | GI50 (A549 NSCLC) | TGI (A549 NSCLC) | GI50 (CAKI-1 renal) | TGI (CAKI-1 renal) | GI50 (DU-145 prostate) | TGI (DU-145 prostate) | GI50 (HOP-92 NSCLC) | TGI (HOP-92 NSCLC) | GI50 (M14 melanoma) | TGI (M14 melanoma) | GI50 (MOLT-4 leukemia) | TGI (MOLT-4 leukemia) | GI50 (OVCAR-5 ovarian) | TGI (OVCAR-5 ovarian) | GI50 (OVCAR-8 ovarian) | TGI (OVCAR-8 ovarian) | GI50 (SNB-75 CNS) | TGI (SNB-75 CNS) | GI50 (UACC-62 melanoma) | TGI (UACC-62 melanoma)
1 | COc1cc2c(Nc3ccc(-c4ccc(N)cc4)cc3)ncnc2c(OC)c1OC | 2680 nM | > 100 µM | 655 nM | > 56.5 µM | 18.4 µM | > 100 µM | 18300 nM | > 100 µM | 0.542 µM | > 67.1 µM | 4050 nM | > 100 µM | 6.29 µM | > 100 µM | 5.46 µM | 56.9 µM | 16600 nM | 64.9 µM | 0.522 µM | > 35.1 µM
2 | CS(=O)(=O)Nc1cc(-c2ccc3ncc(C#N)c(Nc4ccc(F)c(Cl)c4)c3c2)cnc1Cl | 468 nM | 3.12 µM | 258 nM | 1.24 µM | 0.242 µM | > 22.1 µM | 33.3 nM | 0.61 µM | 0.193 µM | 1.92 µM | 78.3 nM | 0.487 µM | 0.308 µM | 2.29 µM | 0.331 µM | > 100 µM | 25.1 nM | 0.507 µM | 0.073 µM | 0.596 µM
3 | CC[C@]12C=CCN3CC[C@@]4(c5ccc(OC)cc5N(C)[C@H]4[C@@](O)(C(=O)OC)[C@@H]1OC(=O)CCC(=O)O[C@H]1CC[C@H]4[C@@H]5CCC6=CC(=O)CC[C@@H]6[C@H]5CC[C@]14C)[C@@H]32 | 1640 nM | > 50 µM | 1560 nM | > 50 µM | 2.73 µM | > 50 µM | 1070 nM | 4.08 µM | 1.92 µM | > 50 µM | 1550 nM | > 50 µM | 1.9 µM | > 50 µM | 2.24 µM | > 50 µM | 1080 nM | 31.4 µM | 1.12 µM | 3.13 µM
4 | C=C(C)COc1ccc2c(c1)CCC1C2CCC2(C)C(=O)/C(=N/O)CC12 (stereo not given) | – | 26.4 µM | – | 10.2 µM | – | 7.93 µM | – | 10.4 µM | – | 14.4 µM | – | 6.05 µM | – | 18.7 µM | – | 24.1 µM | – | 11.9 µM | – | 28.5 µM
5 | CC(C)c1cnc(-c2cc(Cl)ccc2F)cc1Nc1ccncc1C(=O)NC(CO)CO | 11100 nM | 62.3 µM | 6280 nM | 68.7 µM | 13.4 µM | 42 µM | 1330 nM | 35.4 µM | 17.8 µM | 39 µM | 11700 nM | 39.3 µM | 16.2 µM | 39.6 µM | 14.6 µM | 49.8 µM | 51.5 nM | 25.9 µM | 15.1 µM | 29 µM
6 | Cn1c2c(c3ccccc31)CCN1C[C@@H]3CCCC[C@H]3C[C@@H]21 | 3100 nM | > 100 µM | 2920 nM | > 29.5 µM | 2.36 µM | 5.8 µM | 3440 nM | 34.2 µM | 2.95 µM | 18.4 µM | 5550 nM | > 100 µM | 3.82 µM | > 100 µM | 2.84 µM | > 30.2 µM | 4320 nM | > 100 µM | 4.19 µM | > 100 µM
7 | Cc1cc(S(=O)(=O)Nc2nc3ccccc3c(=O)n2Cc2ccco2)c(S)cc1Cl | 48000 nM | > 100 µM | 44100 nM | > 100 µM | 30.7 µM | > 100 µM | > 100000 nM | > 100 µM | 69.9 µM | > 100 µM | 18600 nM | > 100 µM | 60.4 µM | > 100 µM | 57.7 µM | > 100 µM | 97000 nM | > 100 µM | 36.4 µM | > 100 µM
8 | CCN1CCN(Cc2ccc(Nc3ncc(F)c(-c4cc(F)c5nc(C)n(C(C)C)c5c4)n3)nc2)CC1 | 411 nM | 11.9 µM | 187 nM | 7.51 µM | 5.75 µM | 12.2 µM | 33.7 nM | 50 µM | 3.6 µM | 11.5 µM | 156 nM | 9.85 µM | 8.53 µM | 50 µM | 9.58 µM | 26.2 µM | 94 nM | 6.68 µM | 6.39 µM | 14.2 µM
9 | CC(=O)Oc1ccc(C2OC(c3ccc4ccccc4c3OC(C)=O)=NN2C(C)=O)c(OC(C)=O)c1 (stereo not given) | 412 nM | > 48.5 µM | 240 nM | 5.44 µM | 0.476 µM | > 100 µM | 252 nM | > 29.5 µM | 0.368 µM | > 45.6 µM | 454 nM | > 100 µM | 2.22 µM | > 100 µM | 0.363 µM | > 100 µM | 1130 nM | > 31.4 µM | 0.331 µM | 9.04 µM
10 | CCCCCCCCCN=C(N)c1ccc(N2CCN(c3ccc(C(N)=NCCCCCCCCC)cc3)CC2)cc1 | 1570 nM | 10.5 µM | 1860 nM | 8.42 µM | 2.35 µM | 8.06 µM | 4100 nM | > 50 µM | 3.09 µM | > 50 µM | 1580 nM | > 50 µM | 3.13 µM | 11 µM | 1.62 µM | 5.95 µM | 1100 nM | 4.75 µM | 2.45 µM | 22.1 µM
11 | CCc1ccc(Oc2c(-c3ccc(OCCc4cccc(C(F)(F)F)c4)cc3O)n[nH]c2C(F)(F)F)cc1 | 4890 nM | 11.1 µM | 6790 nM | 13.3 µM | 2.62 µM | 8.35 µM | 1360 nM | 5.01 µM | 5.23 µM | 11.9 µM | 1840 nM | 7.05 µM | 7.64 µM | 14.4 µM | 5.25 µM | 11.6 µM | 5820 nM | 12.1 µM | 3.44 µM | 10.4 µM
12 | Cc1c(O)cccc1C(=O)N[C@@H](CSc1ccccc1)[C@H](O)CN1C[C@H]2CCCC[C@H]2C[C@H]1C(=O)NC(C)(C)C | 3010 nM and 4940 nM | 10.8 µM and 22.8 µM | 2570 nM and 9320 nM | 6.56 µM and > 37.8 µM | 6.58 µM and 8.27 µM | 25.2 µM and 31.8 µM | 2470 nM and 6250 nM | 7.62 µM and 25.2 µM | 4.45 µM and 5.2 µM | 16.4 µM and 15.4 µM | 2220 nM and 2960 nM | 5.46 µM and 10.4 µM | 8.95 µM and 6.31 µM | 31.6 µM and 19 µM | 6.56 µM and 7.87 µM | 35.2 µM and 39.6 µM | 2770 nM and 2580 nM | 14.5 µM and 18.4 µM | 5.79 µM and 5.8 µM | 18.8 µM and 17.6 µM
